Results reported in US20240270744A1 (Hoffmann-La Roche Inc., priority 2021, published 2024).
Read-outs that look alike come from different tables or passages of the source.

Experiments:
[1] = biological target: human GABAA α5β2γ1 receptor (Homo sapiens (Human), UniProt P31644+Q8N1C3); experiment: Radioligand binding assay, competition for [3H]RO7239181, γ1-containing GABAA subtypes; conditions: Table 1; [3H]RO7239181 displacement, membranes from HEK293F cells, mean of two determinations
Procedure: The affinity of compounds at GABAA γ1 subunit-containing receptors was measured by competition for [^3H]RO7239181 (67.3 Ci/mmol; Roche) binding to membranes from HEK293F cells (ThermoFisher R79007) expressing human (transiently transfected) receptors of composition α5β2γ1, α2β2γ1, α1β2γ1. For better protein expression of the α2 subunit-containing receptors, the 28 amino acid long signal peptide (Met1 to Ala28) of the human GABAA α2 subunit was substituted by the 31 amino acid long signal peptide (Met1 to Ser31) of human GABAA α5 subunit.
(§1) Harvested pellets from HEK293F cells expressing the different GABAA receptor subtypes were resuspended in Mannitol Buffer pH 7.2-7.4 (Mannitol 0.29 M, Triethylamine 10 mM, Acetic acid 10 mM, EDTA 1 mM plus protease inhibitors (20 tablets Complete, Roche Diagnostics Cat. No. 05 056 489 001 per liter)), washed two times and then resuspended at 1:10 to 1:15 dilution in the same buffer. Cell disruption was performed by stirring the suspension in a Parr vessel #4637 at 435 psi for 15 minutes, and then the suspensions were centrifuged at 1000×g for 15 minutes at 4° C. (Beckman Avanti J-HC: rotor JS-4.2). The supernatant (S1) was transferred in a 21 Schott flask and the pellet (P1) was resuspended with Mannitol Buffer up to 175 ml. The resuspended pellet was transferred into a 250 ml Corning centrifugal beaker and centrifuged at 1500×g for 10 minutes at 4° C. (Beckman Avanti J-HC: rotor JS-4.2). The supernatant (S1) was then transferred in the 21 Schott flask and the pellet was discarded. The supernatants (S1) were centrifuged in 500 ml Beckman polypropylene centrifugal beaker at 15′000×g for 30 minutes at 4° C. (Beckman Avanti J-20 XP; rotor JLA-10.500). The pellet (P2) was resuspended with Mannitol Buffer 1:1 and frozen at −80° C. The supernatant (S2) was centrifuged in 100 ml Beckman polypropylene centrifugal tubes at 48000×g for 50 minutes at 4° C. (Beckman Avanti J-20 XP; rotor JA-18). The supernatant (S3) was discarded and the pellet (P3) was resuspended with 1:1 Mannitol Buffer. The P2 and P3 protein concentration was determined with the BIORAD Standard assay method with bovine serum albumin as standard and measured on the NANO-Drop 1000. The membrane suspension was aliquots (500 μl per tube) and stored at −80° C. until required.
(§2) Membrane homogenates were resuspended and polytronised (Polytron PT1200E Kinematica AG) in Potassium Phosphate 10 mM, KCl 100 mM binding buffer at pH 7.4 to a final assay concentration determined with a previous experiment.
Radioligand binding assays were carried out in a volume of 200 μL (96-well plates) which contained 100 μL of cell membranes, [3H]RO7239181 at a concentration of 1.5 nM (α5β2γ1) or 20-30 nM (α1β2γ1, α2β2γ1) and the test compound in the range of [0.3-10000]=10^−9 M. Nonspecific binding was defined by 10×10^−6 (α5β2γ1) and 30×10^−6 M RO7239181 and typically represented less than 5% (α5β2γ1) and less than 20% (β1β2γ1, α2β2γ1) of the total binding. Assays were incubated to equilibrium for 1 hour at 4° C. and then, membranes were filtered onto unifilter (96-well white microplate with bonded GF/C filters preincubated 20-50 minutes in 0.3% Polyethylenimine) with a Filtermate 196 harvester (Packard BioScience) and washed 4 times with cold Potassium Phosphate 10 mM pH 7.4, KCl 100 mM binding buffer. After anhydrousing, filter-retained radioactivity was detected by liquid scintillation counting. Ki values were calculated using Excel-Fit (Microsoft) and are the means of two determinations.
Representative test results, obtained by the above described assay measuring binding affinity to HEK293 cells expressing human (h) receptors, are shown in the Table 1.

[2] = biological target: human GABAA α2β2γ1 receptor (Homo sapiens (Human), UniProt P47869+Q8N1C3); experiment: as above; conditions: for LogSel: Log of the γ2/γ1 Ki ratio
Procedure: The affinity of compounds at GABAA γ1 subunit-containing receptors was measured by competition for [^3H]RO7239181 (67.3 Ci/mmol; Roche) binding to membranes from HEK293F cells (ThermoFisher R79007) expressing human (transiently transfected) receptors of composition α5β2γ1, α2β2γ1, α1β2γ1.
as §1, §2
Assays were incubated to equilibrium for 1 hour at 4° C. and then, membranes were filtered onto unifilter (96-well white microplate with bonded GF/C filters preincubated 20-50 minutes in 0.3% Polyethylenimine) with a Filtermate 196 harvester (Packard BioScience) and washed 4 times with cold Potassium Phosphate 10 mM pH 7.4, KCl 100 mM binding buffer. After anhydrousing, filter-retained radioactivity was detected by liquid scintillation counting. Ki values were calculated using Excel-Fit (Microsoft) and are the means of two determinations.

[3] = biological target: human GABAA α1β3γ2 receptor (Homo sapiens (Human), UniProt P14867+P18507); experiment: Radioligand binding assay, competition for [3H]Flumazenil, γ2-containing GABAA subtypes; conditions: read-out: Ki h-GABAA α1β3γ2
Procedure: The affinity of compounds at GABAA γ2 subunit-containing receptors was measured by competition for [^3H]Flumazenil (81.1 Ci/mmol; Roche) binding to HEK293F cells expressing human (transiently transfected) receptors of composition α1β3γ2.
Harvested pellets from HEK293F cells expressing the different GABAA γ2 receptor subtypes were resuspended in Mannitol Buffer pH 7.2-7.4 and processed as described above for the cells expressing the GABAA γ1 subunit-containing receptors.
Assays were incubated to equilibrium for 1 hour at 4° C. and harvested onto GF/C uni-filters (Packard) by filtration using a Packard harvester and washing with ice-cold wash buffer (50 mM Tris; pH 7.5). After anhydrousing, filter-retained radioactivity was detected by liquid scintillation counting. Ki values were calculated using Excel-Fit (Microsoft) and are the means of two determinations.

[4] = Ki h-GABAA α2β2γ1, Table 1, [3H]RO7239181 displacement, membranes from HEK293F cells, mean of two determinations
[5] = Ki h-GABAA α2β2γ1, Table 2, [3H]RO7239181 displacement
[6] = Table 1, Ki α1β3γ2 (nM)/Ki α2β2γ1 (nM)
[7] = Table 1, [3H]Flumazenil displacement, HEK293F cells, mean of two determinations

C[C@@H]1N=C(c2c(F)cccc2F)c2c(cnc(C(F)(F)F)c2Cl)-n2c1nc1c2CCC1 [Example 20, (10S)-6-chloro-8-(2,6-difluorophenyl)-10-methyl-5-(trifluoromethyl)-1,4,9,12-tetrazatetracyclo[9.6.0.02,7.013,17]heptadeca-2(7),3,5,8,11,13(17)-hexaene]
Ki [1]: 4.9 nM | Ki [2, 4]: 11.8 nM | Ki [2, 5]: 15.1 nM | γ2/γ1 Selectivity Ratio [2, 6]: 92 | LogSel ([2]; Table 1): 1.96 | Ki [3, 7]: 1090 nM

C[C@@H]1N=C(c2c(F)cccc2F)c2c(cnc(C(F)(F)F)c2Cl)-n2nc(C(=O)N3CC(C)(O)C3)nc21 [Example 10, [(7S)-11-chloro-9-(2,6-difluorophenyl)-7-methyl-12-(trifluoromethyl)-2,3,5,8,13-pentazatricyclo[8.4.0.02,6]tetradeca-1(10),3,5,8,11,13-hexaen-4-yl]-(3-hydroxy-3-methyl-azetidin-1-yl)methanone]
Ki [1]: 3 nM | Ki [2, 4]: 14.3 nM | Ki [2, 5]: 14.3 nM | Ki ([2]; Ki h-GABAA α2β2γ1, Table 3, reference compounds comparison): 14.3 nM | γ2/γ1 Selectivity Ratio [2, 6]: 321 | LogSel ([2]; Table 1): 2.51 | γ2/γ1 Selectivity Ratio ([2]; Table 3, Ki α1β3γ2/Ki α2β2γ1): 321 | LogSel ([2]; Table 3): 2.5 | Ki [3, 7]: 4610 nM | Ki ([3]; Table 3, reference compounds comparison): 4610 nM

C[C@@H]1N=C(c2c(F)cccc2F)c2c(cnc(C(F)(F)F)c2Cl)-n2nc(C(=O)N3CCC3)nc21 [Example 6, azetidin-1-yl-[(7S)-11-chloro-9-(2,6-difluorophenyl)-7-methyl-12-(trifluoromethyl)-2,3,5,8,13-pentazatricyclo[8.4.0.02,6]tetradeca-1(10),3,5,8,11,13-hexaen-4-yl]methanone]
Ki [1]: 11.6 nM | Ki [2, 4]: 45.2 nM | Ki [2, 5]: 45.2 nM | γ2/γ1 Selectivity Ratio [2, 6]: 227 | LogSel ([2]; Table 1): 2.36 | Ki [3, 7]: 10200 nM

Cc1nnc2n1-c1cnc(C3CC3)c(Cl)c1C(c1c(F)cccc1F)=N[C@H]2C [Example 2, (7S)-11-chloro-12-cyclopropyl-9-(2,6-difluorophenyl)-3,7-dimethyl-2,4,5,8,13-pentazatricyclo[8.4.0.02,6]tetradeca-1(10),3,5,8,11,13-hexaene]
Ki [1]: 12.6 nM | Ki [2]: 143 nM | γ2/γ1 Selectivity Ratio [2, 6]: 23 | LogSel ([2]; Table 1): 1.36 | Ki ([2]; read-out: Ki h-GABAA α2β2γ1, Table 2, [3H]RO7239181 displacement): 143 nM | Ki [3, 7]: 3290 nM

C[C@@H]1N=C(c2c(F)cccc2F)c2c(cnc(C(F)(F)F)c2Cl)-n2cc(C(=O)NCCO)nc21 [Example 19, (7S)-11-chloro-9-(2,6-difluorophenyl)-N-(2-hydroxyethyl)-7-methyl-12-(trifluoromethyl)-2,5,8,13-tetrazatricyclo[8.4.0.02,6]tetradeca-1(10),3,5,8,11,13-hexaene-4-carboxamide]
Ki [1]: 3.8 nM | Ki [2, 4]: 21.2 nM | Ki [2, 5]: 23.2 nM | γ2/γ1 Selectivity Ratio [2, 6]: 241 | LogSel ([2]; Table 1): 2.38 | Ki [3, 7]: 5100 nM

C[C@@H]1N=C(c2c(F)cccc2F)c2c(cnc(C(F)(F)F)c2Cl)-n2nc(NC(=O)C3COC3)nc21 [Example 12, N-[(7S)-11-chloro-9-(2,6-difluorophenyl)-7-methyl-12-(trifluoromethyl)-2,3,5,8,13-pentazatricyclo[8.4.0.02,6]tetradeca-1(10),3,5,8,11,13-hexaen-4-yl]oxetane-3-carboxamide]
Ki [1]: 5.2 nM | Ki [2, 4]: 69.2 nM | Ki [2, 5]: 69.2 nM | γ2/γ1 Selectivity Ratio [2, 6]: 178 | LogSel ([2]; Table 1): 2.25 | Ki [3, 7]: 12300 nM

C[C@@H]1N=C(c2c(F)cccc2F)c2c(cnc(C(F)(F)F)c2Cl)-n2nc(C(=O)N3CC(F)C3)nc21 [Example 7, [(7S)-11-chloro-9-(2,6-difluorophenyl)-7-methyl-12-(trifluoromethyl)-2,3,5,8,13-pentazatricyclo[8.4.0.02,6]tetradeca-1(10),3,5,8,11,13-hexaen-4-yl]-(3-fluoroazetidin-1-yl)methanone]
Ki [1]: 3.5 nM | Ki [2, 4]: 20.2 nM | Ki [2, 5]: 20.2 nM | γ2/γ1 Selectivity Ratio [2, 6]: 253 | LogSel ([2]; Table 1): 2.40 | Ki [3, 7]: 5100 nM

C[C@@H]1N=C(c2c(F)cccc2F)c2c(cnc(C(F)(F)F)c2Cl)-n2nc(C(=O)NCC(C)(C)O)nc21 [Example 21, (7S)-11-chloro-9-(2,6-difluorophenyl)-N-(2-hydroxy-2-methyl-propyl)-7-methyl-12-(trifluoromethyl)-2,3,5,8,13-pentazatricyclo[8.4.0.02,6]tetradeca-1(10),3,5,8,11,13-hexaene-4-carboxamide]
Ki [1]: 10.7 nM | Ki [2, 4]: 72.3 nM | Ki [2, 5]: 72.3 nM | γ2/γ1 Selectivity Ratio [2, 6]: 156 | LogSel ([2]; Table 1): 2.19 | Ki [3, 7]: 11300 nM

Cc1nnc2n1-c1cnc(C(F)(F)F)c(Cl)c1C(c1c(F)cccc1Cl)=N[C@H]2C [Example 17, (7S)-11-chloro-9-(2-chloro-6-fluoro-phenyl)-3,7-dimethyl-12-(trifluoromethyl)-2,4,5,8,13-pentazatricyclo[8.4.0.02,6]tetradeca-1(10),3,5,8,11,13-hexaene]
Ki [1]: 3.8 nM | Ki [2, 4]: 22.6 nM | Ki [2, 5]: 21 nM | γ2/γ1 Selectivity Ratio [2, 6]: 215 | LogSel ([2]; Table 1): 2.33 | Ki [3, 7]: 4870 nM

C[C@@H]1N=C(c2c(F)cccc2F)c2c(cnc(C(F)(F)F)c2Cl)-n2nc(C(=O)NCCO)nc21 [Example 15, (7S)-11-chloro-9-(2,6-difluorophenyl)-N-(2-hydroxyethyl)-7-methyl-12-(trifluoromethyl)-2,3,5,8,13-pentazatricyclo[8.4.0.02,6]tetradeca-1(10),3,5,8,11,13-hexaene-4-carboxamide]
Ki [1]: 2.6 nM | Ki [2, 4]: 34.5 nM | Ki [2, 5]: 36.5 nM | γ2/γ1 Selectivity Ratio [2, 6]: 275 | LogSel ([2]; Table 1): 2.44 | Ki [3, 7]: 9470 nM
